Laboratory results: article PMC6896740, “Safety, tolerability, pharmacokinetics, and pharmacodynamics of PF-06650833, a selective interleukin-1 receptor-associated kinase 4 (IRAK4) inhibitor, in single and multiple ascending dose randomized phase 1 studies in healthy subjects” (Arthritis Research & Therapy, 2019)
Read-outs that look alike come from different tables or passages of the source.

Test: Study 2 (MAD) plasma and urine pharmacokinetics
Format: in vivo, human
Conditions: for AUC: read-out: AUCtau, geometric mean (%CV); for Cmax: read-out: Cmax, geometric mean (%CV); for Tmax: read-out: Tmax, median (range)
Protocol: Subjects were enrolled sequentially into seven cohorts. Within each cohort, eight subjects and two subjects were randomized to receive PF-06650833 and placebo, respectively. Doses for all cohorts were administered after a standard (not high-fat) meal. Multiple dosing regimens (once daily [QD] 24 h apart, twice daily [BID] 12 h apart, three times per day [TID] 8 h apart, and four times per day [QID] 6 h apart) were used to provide required total daily doses. In the final dosing scheme, multiple oral doses of PF-06650833 IR suspension formulations at 25, 100, 250, and 750 mg BID and 1000 mg QID were administered in cohorts 1–5. PF-06650833 IR 330 mg TID (cohort 6) and an MR tablet at a dose of 300 mg QD (cohort 7) were also evaluated (see Fig. 1b for final dosing scheme).
For both studies, samples of blood (and urine in study 2) were taken for evaluation of PK/PD parameters (see Additional file 1: Supplemental Methods). PK samples were obtained at the nominal time relative to dosing (± 10%). Plasma and urine samples were analyzed using validated, sensitive, and specific liquid chromatography tandem mass spectrometric methods (at Pfizer Inc., Groton, CT, USA, for study 1 and at Worldwide Pharmacokinetics, Dynamics and Metabolism, Cambridge, MA, USA, for study 2). The lower limit of quantification for PF-06650833 in plasma was 0.0500 ng/mL. The lower limit of quantification for PF-06650833 in urine was 1.00 ng/mL. Serum samples were also analyzed for hsCRP, and plasma samples were analyzed for 4β-hydroxycholesterol and cholesterol.
PK parameters were calculated using non-compartmental analysis of concentration-time data. For study 1 only, data from cohort 1 (period 4 [IR 30 mg] versus period 5 [IR 30 mg + food]) and cohort 3 (period 2 [MR 30 mg] versus period 3 [MR 30 mg + food]) were used to estimate the effect of food intake. Cmax and AUC were calculated for each subject and treatment, with and without food, after which a within-subject difference could be found between fed (high-fat meal) and fasted doses. Analysis of covariance was used to model these within-subject differences and to calculate 95% confidence intervals (CIs) for the differences for each dose (IR 30 mg and MR 30 mg). For study 2 only, the amounts of PF-06650833 in urine and renal clearance were listed and summarized descriptively. As part of the routine safety laboratory monitoring, the presence of any atypical crystals in urine specimens was semi-quantitatively assessed microscopically by typical histopathologic methods and scored as numbers of crystals per high power field (hpf); higher abundance (moderate or many) was defined as ≥ 15/hpf. No formal interim analyses were conducted.
22 In Study 2, pre-dose blood samples were collected for PK analysis on days 1, 2, 4, 7, 10, and
23 14. Post-dose samples were collected for PK analysis on days 1 and 14 at 0.5, 1, 2, 4, 6, 8, 10,
24 12, and 16 hours post-dose; on day 7 at 1, 2, 4, 6, 8, and 12 hours post-dose; and on days 15,
27 hours post-dose. […]
32 Blood samples (2 mL, to obtain ≥0.5 mL plasma) were collected in K2EDTA tubes
33 (dipotassium ethylenediaminetetraacetic acid) and centrifuged at ~1700 x g for 10 minutes at
34 4 °C, with plasma then stored in polypropylene tubes at -70 °C within 1 hour of collection.
35 Plasma samples were analyzed using a validated, sensitive , and specific liquid
36 chromatography tandem mass spectrometric method (LC -MS; at Pfizer Inc, Groton, CT, USA
37 for Study 1; and at Worldwide Pharmaco kinetics, Dynamics, and Metabolism, Cambridge,
38 MA, USA for Study 2). The lower limit of quantification (LLOQ) for PF-06650833 in plasma
39 was 0.0500 ng/mL. Between-day assay accuracy values were also calculated (not shown).
40 In Study 2 only, urine samples we re collected in aliquots pre-dose. Cumulative 0–12-hour
41 and 12–24-hour urine samples were also collected as follows: from day 1 after morning
42 dosing to day 2 before morning dosing (and before breakfast) for cohorts 6 –8 only; and from […]

[1] = IR 25 mg BID, day 14, fed (standard meal)
[2] = IR 100 mg BID, day 14, fed (standard meal)
[3] = IR 250 mg BID, day 14, fed (standard meal)
[4] = IR 330 mg TID, day 14, fed (standard meal)
[5] = IR 750 mg BID, day 14, fed (standard meal)
[6] = MR 300 mg QD, day 14, fed (standard meal)
[7] = human, plasma, oral, 25 mg, IR 25 mg BID, day 1, fed (standard meal)
[8] = human, plasma, oral, 25 mg, IR 25 mg BID, day 14, fed (standard meal)
[9] = human, plasma, oral, 100 mg, IR 100 mg BID, day 1, fed (standard meal)
[10] = human, plasma, oral, 100 mg, IR 100 mg BID, day 14, fed (standard meal)
[11] = human, plasma, oral, 250 mg, IR 250 mg BID, day 1, fed (standard meal)
[12] = human, plasma, oral, 250 mg, IR 250 mg BID, day 14, fed (standard meal)
[13] = human, plasma, oral, 300 mg, MR 300 mg QD, day 1, fed (standard meal)
[14] = human, plasma, oral, 300 mg, MR 300 mg QD, day 14, fed (standard meal)
[15] = human, plasma, oral, 330 mg, IR 330 mg TID, day 1, fed (standard meal)
[16] = human, plasma, oral, 330 mg, IR 330 mg TID, day 14, fed (standard meal)
[17] = human, plasma, oral, 750 mg, IR 750 mg BID, day 1, fed (standard meal)
[18] = human, plasma, oral, 750 mg, IR 750 mg BID, day 14, fed (standard meal)
[19] = human, plasma, oral, 1000 mg, IR 1000 mg QID, day 1, fed (standard meal)

## CC[C@@H]1[C@H](F)C(=O)N[C@@H]1COc1nccc2cc(C(N)=O)c(OC)cc12 [PF-06650833, 1-{[(2S,3S,4S)-3-Ethyl-4-fluoro-5-oxopyrrolidin-2-yl]methoxy}-7-methoxyisoquinoline-6-carboxamide]
IR 25 mg BID, day 1, fed (standard meal)
  Tmax, median (range): 2.03 (1.00–4.00) h
[1]
  Ae24% (drug recovered unchanged in urine up to 24 h), geometric mean (%CV): 0.7288 (27) %
  CL/F, geometric mean (%CV): 122.4 (26) L/h
  Cav, geometric mean (%CV): 17.03 (26) ng/mL
  Cmin, geometric mean (%CV): 4.064 (46) ng/mL
  PTF (peak-trough fluctuation), geometric mean (%CV): 1.868 (21)
  Rac (observed accumulation ratio), geometric mean (%CV): 1.250 (19)
[2]
  Ae24% (drug recovered unchanged in urine up to 24 h), geometric mean (%CV): 0.9414 (29) %
  CL/F, geometric mean (%CV): 128.9 (16) L/h
  Cav, geometric mean (%CV): 64.72 (16) ng/mL
  Cmin, geometric mean (%CV): 14.13 (40) ng/mL
  PTF (peak-trough fluctuation), geometric mean (%CV): 1.740 (16)
  Rac (observed accumulation ratio), geometric mean (%CV): 1.373 (23)
[3]
  Ae24% (drug recovered unchanged in urine up to 24 h), geometric mean (%CV): 0.4822 (53) %
  CL/F, geometric mean (%CV): 183.7 (39) L/h
  Cav, geometric mean (%CV): 113.3 (39) ng/mL
  Cmin, geometric mean (%CV): 20.07 (76) ng/mL
  PTF (peak-trough fluctuation), geometric mean (%CV): 1.911 (14)
  Rac (observed accumulation ratio), geometric mean (%CV): 1.009 (13)
[4]
  Ae24% (drug recovered unchanged in urine up to 24 h), geometric mean (%CV): 0.6372 (34) %
  CL/F, geometric mean (%CV): 206.1 (28) L/h
  Cav, geometric mean (%CV): 200.1 (28) ng/mL
  Cmin, geometric mean (%CV): 51.48 (68) ng/mL
  PTF (peak-trough fluctuation), geometric mean (%CV): 1.307 (18)
  Rac (observed accumulation ratio), geometric mean (%CV): 1.068 (26)
[5]
  Ae24% (drug recovered unchanged in urine up to 24 h), geometric mean (%CV): 0.4885 (24) %
  CL/F, geometric mean (%CV): 302.9 (24) L/h
  CLr (renal clearance), geometric mean (%CV): 23.14 (19) mL/min
  Cav, geometric mean (%CV): 206.3 (24) ng/mL
  Cmin, geometric mean (%CV): 33.07 (50) ng/mL
  PTF (peak-trough fluctuation), geometric mean (%CV): 1.868 (12)
  Rac (observed accumulation ratio), geometric mean (%CV): 0.9377 (32)
[6]
  Ae24% (drug recovered unchanged in urine up to 24 h), geometric mean (%CV): 0.300 (70) %
  CL/F, geometric mean (%CV): 308.0 (65) L/h
  Cav, geometric mean (%CV): 40.62 (65) ng/mL
  Cmin, geometric mean (%CV): 6.471 (55) ng/mL
  PTF (peak-trough fluctuation), geometric mean (%CV): 3.383 (37)
  Rac (observed accumulation ratio), geometric mean (%CV): 0.8985 (24)
All dose groups
  Dose recovered unchanged in urine: Less than 1%
All dose groups, based on Cmin
  Steady state reached by: ≤ 4 days
[7]
  AUC: 164 ng·h/mL
  Cmax: 30 ng/mL
  Tmax: 2 h
[8]
  AUC: 204 ng·h/mL
  Cmax: 36.2 ng/mL
  Tmax: 2 h
[9]
  AUC: 566 ng·h/mL
  Cmax: 102 ng/mL
  Tmax: 2.03 h
[10]
  AUC: 776 ng·h/mL
  Cmax: 128 ng/mL
  Tmax: 2.02 h
[11]
  AUC: 1350 ng·h/mL
  Cmax: 226 ng/mL
  Tmax: 4 h
[12]
  AUC: 1360 ng·h/mL
  Cmax: 238 ng/mL
  Tmax: 2.02 h
[13]
  AUC: 1150 ng·h/mL
  Cmax: 149 ng/mL
  Tmax: 4 h
[14]
  AUC: 975 ng·h/mL
  Cmax: 147 ng/mL
  Tmax: 4 h
[15]
  AUC: 1500 ng·h/mL
  Cmax: 309 ng/mL
  Tmax: 2.03 h
[16]
  AUC: 1600 ng·h/mL
  Cmax: 318 ng/mL
  Tmax: 2 h
[17]
  AUC: 2580 ng·h/mL
  Cmax: 470 ng/mL
  Tmax: 3.12 h
[18]
  AUC: 2480 ng·h/mL
  Cmax: 421 ng/mL
  Tmax: 2 h
[19]
  AUC: 2010 ng·h/mL
  Cmax: 517 ng/mL
  Tmax: 4 h
human, plasma, oral, day 1, range across IR 25 to 1000 mg, standard meal, read-out: Median Tmax
  Tmax at 1 day: 2 to 4 h
human, plasma, oral, day 14, IR formulations, standard meal, read-out: Median Tmax
  Tmax at 14 day: 2 h
human, plasma, oral, range for IR 750 mg BID, IR 330 mg TID, MR 300 mg QD, read-out: Mean half-life at steady state
  half-life: 25.4 to 31.4 h
human, plasma, oral, IR 25 mg BID, day 14, fed (standard meal), read-out: Vz/F, geometric mean (%CV)
  Vd/F: 9650 L
human, plasma, oral, IR 100 mg BID, day 14, fed (standard meal), read-out: Vz/F, geometric mean (%CV)
  Vd/F: 8060 L
human, plasma, oral, IR 250 mg BID, day 14, fed (standard meal), read-out: Vz/F, geometric mean (%CV)
  Vd/F: 10200 L
human, plasma, oral, IR 330 mg TID, day 14, fed (standard meal), read-out: Vz/F, geometric mean (%CV)
  Vd/F: 10100 L
human, plasma, oral, IR 750 mg BID, day 14, fed (standard meal), read-out: Vz/F, geometric mean (%CV)
  Vd/F: 13200 L
human, plasma, oral, MR 300 mg QD, day 14, fed (standard meal), read-out: Vz/F, geometric mean (%CV)
  Vd/F at 14 day: 11600 L
human, plasma, oral, range across all dosages, day 14, read-out: Mean volume of distribution
  Vd at 14 day: 8060 to 13200 L
human, urine and plasma, oral, 300 mg, MR 300 mg QD, day 14, fed (standard meal), read-out: CLr (renal clearance), geometric mean (%CV)
  CL renal: 15.4 mL/min
human, urine and plasma, oral, 330 mg, IR 330 mg TID, day 14, fed (standard meal), read-out: CLr (renal clearance), geometric mean (%CV)
  CL renal: 18.8 mL/min
human, urine and plasma, oral, range for IR < 750 mg and MR 300 mg, read-out: Renal clearance
  CL renal: 14 to 23 mL/min
human, urine, oral, 25 mg, IR 25 mg BID, day 14, fed (standard meal), read-out: CLr (renal clearance), geometric mean (%CV)
  CL renal at 14 day: 13.6 mL/min
human, urine, oral, 100 mg, IR 100 mg BID, day 14, fed (standard meal), read-out: CLr (renal clearance), geometric mean (%CV)
  CL renal at 14 day: 18.5 mL/min
human, urine, oral, 250 mg, IR 250 mg BID, day 14, fed (standard meal), read-out: CLr (renal clearance), geometric mean (%CV)
  CL renal at 14 day: 13.9 mL/min
human, urine, oral, 750 mg, IR 750 mg BID, day 14, fed (standard meal), read-out: CLr (renal clearance), geometric mean (%CV)
  CL renal: 23 mL/min
human, urine, oral, range for IR 25 mg BID, IR 330 mg TID and MR 300 mg QD, read-out: Renal clearance
  CL renal: 14 to 19 mL/min
